US20240277722A1, “CANCER THERAPY USING A COMBINATION OF CDK7 INHIBITOR WITH AN ANTI-CANCER AGENT” (Aurigene Oncology Limited, priority 2021, published 2024)
“And” between values parts separate entries of the source, which are not always exact repeats. Identical values can stand only once.

Experiments:
[1] = system: Z-138 cells; test: Z-138 cell proliferation, CTG reagent, 3-day treatment, single agents and combination (CompuSyn synergy analysis); type: cell-based; conditions: for % Inhibition in proliferation: 3 days
Protocol: Z-138 cells were treated with serial dilutions of Compound-44A (CDK7 inhibitor), serial dilutions of venetoclax individually and in combination for 3 days. The effect of 3-day compound treatment on cell proliferation was measured using CTG reagent. Percentage inhibition of cell proliferation in individual (Compound-44A, venetoclax) and combination treatments (Compound-44A+venetoclax) were analyzed using CompuSyn software to assess synergy.

[2] = system: MCF-7 cells; test: MCF-7 cell proliferation, CTG reagent, 6-day treatment, single agents and combination (CompuSyn synergy analysis); type: cell-based
Protocol: The effect of 6-day compound treatment on cell proliferation was measured using CTG reagent.

SMILES: CC1(C)CCC(CN2CCN(c3ccc(C(=O)NS(=O)(=O)c4ccc(NCC5CCOCC5)c([N+](=O)[O-])c4)c(Oc4cnc5[nH]ccc5c4)c3)CC2)=C(c2ccc(Cl)cc2)C1 [Venetoclax, venetoclax]
- inhibition at 0.004572 µM ([1]; Homo sapiens, Z-138, Venetoclax 0.004572 μM, Day-3): 7.4%
- inhibition at 0.013717 µM ([1]; Homo sapiens, Z-138, Venetoclax 0.013717 μM, Day-3): 18.9%
- inhibition at 0.041152 µM ([1]; Homo sapiens, Z-138, Venetoclax 0.041152 μM, Day-3): 35.6%
- inhibition at 0.123457 µM ([1]; Homo sapiens, Z-138, Venetoclax 0.123457 μM, Day-3): 49.8%
- inhibition at 0.37037 µM ([1]; Homo sapiens, Z-138, Venetoclax 0.370370 μM, Day-3): 63.8%
- inhibition at 1.11111 µM ([1]; Homo sapiens, Z-138, Venetoclax 1.111111 μM, Day-3): 75.6%
- inhibition at 3.33333 µM ([1]; Homo sapiens, Z-138, Venetoclax 3.333333 μM, Day-3): 90.5%
- inhibition at 10 µM ([1]; Homo sapiens, Z-138, Venetoclax 10.000000 μM, Day-3): 99.7%
- inhibition at 30 µM ([1]; Homo sapiens, Z-138, Venetoclax 30.000000 μM, Day-3): 99.9%
- % Inhibition in proliferation ([1]; Venetoclax 0.000006 μM + Compound-44A 0.0 μM): −3.0%
- % Inhibition of proliferation ([1]; Venetoclax 0.000006 μM, Day-3): 1.6% and −2.7% and −8.2%
- % Inhibition in proliferation ([1]; Venetoclax 0.000019 μM + Compound-44A 0.0 μM): −10.0%
- % Inhibition in proliferation ([1]; Venetoclax 0.000169 μM + Compound-44A 0.0 μM): −9.0%
- % Inhibition in proliferation ([1]; Venetoclax 0.000508 μM + Compound-44A 0.0 μM): −10.0%
- % Inhibition in proliferation ([1]; Venetoclax 0.001524 μM + Compound-44A 0.0 μM): −0.2%
- % Inhibition in proliferation ([1]; Venetoclax 0.004572 μM + Compound-44A 0.0 μM): 8.0%
- % Inhibition of proliferation ([1]; Venetoclax 0.004572 μM, Day-3): 6.3% and 11.2%
- % Inhibition in proliferation ([1]; Venetoclax 0.013717 μM + Compound-44A 0.0 μM): 19.0%
- % Inhibition of proliferation ([1]; Venetoclax 0.013717 μM, Day-3): 19.7%
- % Inhibition in proliferation ([1]; Venetoclax 0.041152 μM + Compound-44A 0.0 μM): 33.0%
- % Inhibition of proliferation ([1]; Venetoclax 0.041152 μM, Day-3): 29.6% and 34.7%
- % Inhibition in proliferation ([1]; Venetoclax 0.123457 μM + Compound-44A 0.0 μM): 53.0%
- % Inhibition of proliferation ([1]; Venetoclax 0.123457 μM, Day-3): 53.8% and 55.1%
- % Inhibition in proliferation ([1]; Venetoclax 0.370370 μM + Compound-44A 0.0 μM): 65.0%
- % Inhibition of proliferation ([1]; Venetoclax 0.370370 μM, Day-3): 65.2% and 66.6%
- % Inhibition in proliferation ([1]; Venetoclax 1.111111 μM + Compound-44A 0.0 μM): 76.0%
- % Inhibition of proliferation ([1]; Venetoclax 1.111111 μM, Day-3): 73.5% and 78.1%
- % Inhibition in proliferation ([1]; Venetoclax 3.333333 μM + Compound-44A 0.0 μM): 92.0%
- % Inhibition of proliferation ([1]; Venetoclax 3.333333 μM, Day-3): 91.6% and 92.6%
- % Inhibition in proliferation ([1]; Venetoclax 10.0 μM + Compound-44A 0.0 μM): 100.0%
- % Inhibition of proliferation ([1]; Venetoclax 10.000000 μM, Day-3): 99.8% and 100%
- % Inhibition in proliferation ([1]; Venetoclax 30.0 μM + Compound-44A 0.0 μM): 100.0%
- % Inhibition of proliferation ([1]; Venetoclax 30.000000 μM, Day-3): 100.1%
- % Inhibition in proliferation ([1]; Venetoclax […] + Compound-44A 0.0 μM): −10.0%

SMILES: C[C@]12CC[C@@H]3c4ccc(O)cc4C[C@@H](CCCCCCCCC[S+]([O-])CCCC(F)(F)C(F)(F)F)[C@H]3[C@@H]1CC[C@@H]2O (stereo partly shown) [Fulvestrant, fulvestrant]
- % Inhibition in proliferation ([2]; Fulvestrant 0.000000164 nM + Compound-44A 0.00 nM, 6 days): 2.8%
- % Inhibition of proliferation ([2]; Fulvestrant 0.000000164 nM, Day-6): 0.6% and 2.7% and 4.9%
- % Inhibition in proliferation ([2]; Fulvestrant 0.000000819 nM + Compound-44A 0.00 nM, 6 days): 10.4%
- % Inhibition in proliferation ([2]; Fulvestrant 0.000004096 nM + Compound-44A 0.00 nM, 6 days): 5.0%
- % Inhibition of proliferation ([2]; Fulvestrant 0.000004096 nM, Day-6): 6.6% and 7.7% and 0.7%
- % Inhibition in proliferation ([2]; Fulvestrant 0.00002048 nM + Compound-44A 0.00 nM, 6 days): 7.1%
- % Inhibition of proliferation ([2]; Fulvestrant 0.00002048 nM, Day-6): 7.2% and 5.9%
- % Inhibition in proliferation ([2]; Fulvestrant 0.0001024 nM + Compound-44A 0.00 nM, 6 days): 0.9%
- % Inhibition of proliferation ([2]; Fulvestrant 0.0001024 nM, Day-6): 4.2% and −1.2% and −0.1%
- % Inhibition in proliferation ([2]; Fulvestrant 0.000512 nM + Compound-44A 0.00 nM, 6 days): 7.5%
- % Inhibition of proliferation ([2]; Fulvestrant 0.000512 nM, Day-6): 3.2% and 7.4% and 11.8%
- % Inhibition in proliferation ([2]; Fulvestrant 0.00256 nM + Compound-44A 0.00 nM, 6 days): 3.4%
- % Inhibition in proliferation ([2]; Fulvestrant 0.0128 nM + Compound-44A 0.00 nM, 6 days): 1.5%
- % Inhibition in proliferation ([2]; Fulvestrant 0.064 nM + Compound-44A 0.00 nM, 6 days): −1.2%
- % Inhibition of proliferation ([2]; Fulvestrant 0.064 nM, Day-6): 3.9% and −2.5% and −5%
- % Inhibition in proliferation ([2]; Fulvestrant 0.32 nM + Compound-44A 0.00 nM, 6 days): 24.2%
- % Inhibition of proliferation ([2]; Fulvestrant 0.32 nM, Day-6): 27.7% and 23.3%
- % Inhibition in proliferation ([2]; Fulvestrant 1.6 nM + Compound-44A 0.00 nM, 6 days): 79.8%
- % Inhibition of proliferation ([2]; Fulvestrant 1.6 nM, Day-6): 78.6% and 80%
- % Inhibition in proliferation ([2]; Fulvestrant 8 nM + Compound-44A 0.00 nM, 6 days): 87.5%
- % Inhibition of proliferation ([2]; Fulvestrant 8 nM, Day-6): 88.4% and 86.3%
- % Inhibition in proliferation ([2]; Fulvestrant 40 nM + Compound-44A 0.00 nM, 6 days): 86.9%
- % Inhibition of proliferation ([2]; Fulvestrant 40 nM, Day-6): 86%
- % Inhibition in proliferation ([2]; Fulvestrant 1000 nM + Compound-44A 0.00 nM, 6 days): 88.7%
- % Inhibition of proliferation ([2]; Fulvestrant 1000 nM, Day-6): 90.2%
- % Inhibition in proliferation ([2]; Fulvestrant 3000 nM + Compound-44A 0.00 nM, 6 days): 90.0%
- % Inhibition of proliferation ([2]; Fulvestrant 3000 nM, Day-6): 90.6% and 89.5%
- % Inhibition in proliferation ([2]; Fulvestrant 10000 nM + Compound-44A 0.00 nM, 6 days): 95.0%
- % Inhibition of proliferation ([2]; Fulvestrant 10000 nM, Day-6): 95.7% and 95.1%
- inhibition at 20.48 fM ([2]; Homo sapiens, MCF7, Fulvestrant 0.00002048 nM, Day-6): 8.1%
- inhibition at 0.00032 µM ([2]; Homo sapiens, MCF7, Fulvestrant 0.32 nM, Day-6): 21.6%
- inhibition at 0.0016 µM ([2]; Homo sapiens, MCF7, Fulvestrant 1.6 nM, Day-6): 80.9%
- inhibition at 0.008 µM ([2]; Homo sapiens, MCF7, Fulvestrant 8 nM, Day-6): 87.8%
- inhibition at 0.04 µM ([2]; Homo sapiens, MCF7, Fulvestrant 40 nM, Day-6): 85.9%
- inhibition at 0.2 µM ([2]; Homo sapiens, MCF7, Fulvestrant 200 nM, Day-6): 85.8%
- inhibition at 1 µM ([2]; Homo sapiens, MCF7, Fulvestrant 1000 nM, Day-6): 88.8%
- inhibition at 3 µM ([2]; Homo sapiens, MCF7, Fulvestrant 3000 nM, Day-6): 89.9%
- inhibition at 10 µM ([2]; Homo sapiens, MCF7, Fulvestrant 10000 nM, Day-6): 94.3%
- inhibition of proliferation in MCF-7 cells ([2]; single agent, serial dilutions, 6 days): dose dependent inhibition of proliferation
